“And” between values parts separate entries of the source, which are not always exact repeats. Equal entries are not always repeated. A value given as a limit tells only on which side of the number the result lay.

The target in this test is T1, Gag-Pol polyprotein [588-1027]/[588-1147] (Human immunodeficiency virus 1, UniProt P04585).
T1 construct: 588-1027; 588-1147
As to the kind of experiment: HIV-1 RT Assay. The note with it: pH 7.9.
Broadly, the IC50 is the concentration needed to halve the response being measured. On to `CCC(CCCC=C(c1cc(Cl)c(OC)c(CO)c1)c1cc(Cl)c(OC)c(CO)c1)C1OCCO1` (stereo not drawn) [(3-chloro-5-{1-[3-chloro-5-(hydroxymethyl)-4-methoxyphenyl]-6-(1,3-dioxolan-2-yl)oct-1-en-1-yl}-2-methoxyphenyl)methanol], for which the 50% inhibitory concentration (IC50) is 3.2 µM and 31.6 µM.
The figure for `COC(=O)CC=C(c1cc(Cl)c(OC)c(C(=O)OC)c1)c1cc(Cl)c(OC)c(C(=O)OC)c1` [methyl 3-chloro-5-{1-[3-chloro-4-methoxy-5-(methoxycarbonyl)phenyl]-4-methoxy-4-oxobut-1-en-1-yl}-2-methoxybenzoate] is greater than 100 µM; for `COC(=O)CCC=C(c1cc(Cl)c(OC)c(C(=O)OC)c1)c1cc(Cl)c(OC)c(C(=O)OC)c1` [methyl 3-chloro-5-{1-[3-chloro-4-methoxy-5-(methoxycarbonyl)phenyl]-5-methoxy-5-oxopent-1-en-1-yl}-2-methoxybenzoate] it is greater than 100 µM.

The values above are taken from BindingDB's records for doi:10.1021/jm990343b (Purdue University, 1999).
